In publication PMC9867837 (Cancer letters, 2022):
pKd: −log10 of the molar value.

Columns and labels:
[1] = target: T1, purified recombinant Stat3 (rStat3) (Homo sapiens, UniProt P40763); assay: Isothermal titration calorimetry (ITC); format: binding
T1 construct: made in house; host or cells: E. coli BL21(DE3)
Method: The ITC experiment was carried out as previously described. Details are provided in Supplementary Information, “Methods”. […]
1.2.10. Isothermal titration calorimetry (ITC)
The ITC experiment was carried out as previously described with some modification using Malvern Panalytical MicroCal PEAQ-ITC (United Kingdom). Studies were done at 25 °C. Briefly, H182, previously suspended in 100 % DMSO were diluted in 20 mM HEPES, 150 mM KCl buffer so the final DMSO was 5 %. To avoid buffer mismatch, Stat3 in HEPES buffer was diluted in HEPES buffer with 5% DMSO final concentration. Three hundred microliter (300 μL) aliquots of 3.0 μM Stat3 w ere placed in the cell and titrated with 250 μM H182. Titrations took place by injecting 2 μL H182 in a 2.5 min injection for the titration peak to return to the baseline. The K D was calculated using the MicroCal PEAQ-ITC analysis […]
software and Prism GraphPad software (San Diego, CA), using the one-site model. Control experiments were carried out by titration H182 into buffer, buffer into Stat3, and buffer into buffer. […]
DMSO (control) was added, and then immediately, cells were imaged with a Canon Powershot A640 digital camera under a phase contrast with the Zeiss Axiovert 200 inverted microscope at 10X magnification and noted as the zero time-point. Following culture for 22 h to allow cells to migrate into the denuded area, the culture was then imaged again at the same field that was marked on the plate.
1.2.12. Annexin V binding/apoptosis and flow cytometric analysis
For apoptosis analysis, annexin V/propidium iodide (PI) staining was performed. Briefly, cells in culture and untreated (DMSO, control) or treated with H182 were harvested and stained with FITC -annexin V (Apoptosis Detection Kit), according to manufacturer’s instructions (BD Biosciences, San Jose, CA). […]
1.2.13. Assessment of Physicochemical Properties
Solubility, human (HLM) and mouse liver microsomal (MLM), and plasma stability studies were performed by Eurofins Cerep Panlabs and Eurofin Discovery Services (www.eurofins.com/PharmaDiscovery), while

MDA-MB-231 cells = assay: Immunoblotting for cleaved PARP and caspase 3; format: cell-based, human; settings: 1 μM for 0–24 h or increasing concentration for 2 h
Method: These studies were performed as previously described. Details are presented in Supplementary Information, “Methods”.
Aberrantly-active Stat3 promotes tumor cell growth and proliferation, survival, migration, invasion, and metastasis.
These studies were performed as previously described [1 -3] . Briefly, snap-frozen tumor tissues or cultured cells treated or not were harvested and whole-cell or tissue lysates were prepared in radioimmunoprecipitation assay (RIPA) buffer. Samples of equal total protein were subjected to SDS - PAGE and immunoblotting analysis. Primary antibodies used were anti- Stat3, pY705-Stat3, pS727Stat3, […]
Akt, pT202/Y204Erk1/2 (p44/42), Erk1/2, PARP , caspase 3, c-Myc, survivin, VEGF, β-actin, α/β-tubulin, and GAPDH. For the studies of the effects of cell density and confluence on pY705Stat3, cells were seeded […] in culture dishes. The next day, cells were untreated (DMSO control, […]
0.1%) or treated at the same time with 1 or 2 µM H182, allowed to incubate for the indicated time and then harvested for whole-cell lysate preparation and SDS -PAGE / immunoblotting analy sis. […]
concentration of H182 for 6 h and then treated with 0- 100 nM docetaxel or 0-20 µM cisplatin for a total of 72 h. Viable cell numbers were assessed by a CyQuant cell proliferation kit according to the manufacturer’s instructions (Thermo/Life Technologies Corp, Carlsbad, CA). […]

T1 sequence (P40763 127-711): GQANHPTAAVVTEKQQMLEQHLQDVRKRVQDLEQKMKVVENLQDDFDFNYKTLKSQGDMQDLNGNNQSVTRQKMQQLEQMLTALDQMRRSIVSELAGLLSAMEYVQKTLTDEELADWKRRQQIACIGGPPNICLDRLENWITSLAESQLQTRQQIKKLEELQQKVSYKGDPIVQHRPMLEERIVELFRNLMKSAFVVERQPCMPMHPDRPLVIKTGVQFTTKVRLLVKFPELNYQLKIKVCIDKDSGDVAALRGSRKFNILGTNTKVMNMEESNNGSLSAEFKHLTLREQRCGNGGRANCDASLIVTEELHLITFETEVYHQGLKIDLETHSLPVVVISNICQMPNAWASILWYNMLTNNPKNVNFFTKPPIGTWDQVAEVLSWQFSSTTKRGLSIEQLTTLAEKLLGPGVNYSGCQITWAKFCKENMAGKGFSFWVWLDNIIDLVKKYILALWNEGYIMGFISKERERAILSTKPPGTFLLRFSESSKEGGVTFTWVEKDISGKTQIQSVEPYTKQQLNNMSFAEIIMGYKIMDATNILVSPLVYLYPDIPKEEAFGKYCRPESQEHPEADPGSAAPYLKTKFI

## O=C([C@H]1CCN1S(=O)(=O)c1c(F)c(F)c(F)c(F)c1F)N(Cc1ccc(C2CCCCC2)cn1)c1ccc2c(=O)[nH]ncc2c1 [Compound H182]
[1]
  ΔG: -7.79 kcal/mol
  ΔH: -4.16 kcal/mol
  −TΔS: -3.63 kcal/mol
[1]; one-site model, 25 °C
  pKd: 5.71
MDA-MB-231 cells
  Cleaved PARP and caspase 3: moderate levels
